Results published in patent publication US6706740B2, “Fungicidal heterocyclic aromatic amides and their compositions, methods of use and preparation” (Dow AgroSciences LLC, priority 1999, dated 2004).

Tested on: Septoria tritici—SEPTTR
Test: Leaf Blotch of Wheat, in vivo whole plant, 24 Hour Protectant
Details: Zymoseptoria tritici, 24 h, 100 ppm spray, wheat, 24 hour protectant; control of fungal infection vs untreated plants; read-out: SEPTTR in vivo 1 Day Protectant

Compared with `COc1ccnc(C(=O)NC2COC(=O)CC3(CCCCC3)CC(=O)OC2)c1O` [Compound 380], `COCc1cc(Oc2ccc(C(F)(F)F)cc2)ccc1NC(=O)c1nccc(OC)c1O` [Compound 426] is higher in pest or weed control at 100 ppm: < 25% for the first, 25 to 74% for the second.

Same assay, conditions: Zymoseptoria tritici, 24 h, wheat plants sprayed at 100 ppm, inoculated after 24 hours; control of fungal infection vs untreated plants; read-out: SEPTTR in vivo 1 Day Protectant

Compound `COc1ccnc(C(=O)Nc2cccc(Oc3ccc(C(F)(F)F)cc3)n2)c1O` [Compound 469] has a pest or weed control at 100 ppm of 25 to 74%.

Tested on: Phytophthora infestans (PHYTIN)
Test: microbe, parasite or virus in culture
Assay type: cell-based
Details: Phytophthora infestans, read-out: PHYTIN in vitro Growth Inhibition

Going from `COc1ccnc(C(=O)Nc2cccc(Oc3ccc(C(F)(F)F)cc3)n2)c1O` [Compound 469] to `COCc1cc(Oc2ccc(C(F)(F)F)cc2)ccc1NC(=O)c1nccc(OC)c1O` [Compound 426], the inhibition at 25 ppm rises from < 80% to > 80%.

In the case of `COc1ccnc(C(=O)NC2COC(=O)CC3(CCCCC3)CC(=O)OC2)c1O` [Compound 380], the inhibition at 25 ppm is reported as < 80%.

Tested on: Puccinia recondita—PUCCRT
Test: Brown Rust of Wheat, in vivo whole plant, 24 Hour Protectant
Details: Puccinia; 100 ppm spray, wheat, 24 hour protectant; control of fungal infection vs untreated plants; read-out: PUCCRT in vivo 1 Day Protectant

First: COc1ccnc(C(=O)NC2COC(=O)CC3(CCCCC3)CC(=O)OC2)c1O [Compound 380]
Second: COCc1cc(Oc2ccc(C(F)(F)F)cc2)ccc1NC(=O)c1nccc(OC)c1O [Compound 426]
The pest or weed control at 100 ppm of the first is lower: < 25% for the first, 25 to 74% for the second.

Same assay, conditions: wheat plants sprayed at 100 ppm, inoculated after 24 hours; control of fungal infection vs untreated plants

In the case of `COc1ccnc(C(=O)Nc2cccc(Oc3ccc(C(F)(F)F)cc3)n2)c1O` [Compound 469], the “PUCCRT in vivo 1 Day Protectant” value is reported as “+ +”.

Tested on: Mycosphaerella graminicola (Septoria tritici—SEPTTR)
Test: In vitro fungal growth inhibition, Mycosphaerella graminicola (SEPTTR)
Assay type: cell-based
Details: Zymoseptoria tritici; 25 ppm in growth medium; read-out: SEPTTR in vitro Growth Inhibition

Compared with `COc1ccnc(C(=O)NC2COC(=O)CC3(CCCCC3)CC(=O)OC2)c1O` [Compound 380], `COCc1cc(Oc2ccc(C(F)(F)F)cc2)ccc1NC(=O)c1nccc(OC)c1O` [Compound 426] is higher in inhibition at 25 ppm: < 80% for the first, > 80% for the second.

Same assay, conditions: Zymoseptoria tritici; 25 ppm in the growth medium; read-out: SEPTTR in vitro Growth Inhibition

With `COc1ccnc(C(=O)Nc2cccc(Oc3ccc(C(F)(F)F)cc3)n2)c1O` [Compound 469] the inhibition at 25 ppm was < 80%.

Tested on: Phytophthora infestans—PHYTIN
Test: whole plant or invertebrate
Assay type: in vivo
Details: Phytophthora, in Solanum lycopersicum, 24 h, read-out: PHYTIN in vivo 1 Day Protectant

First: COc1ccnc(C(=O)Nc2cccc(Oc3ccc(C(F)(F)F)cc3)n2)c1O [Compound 469]
Second: COCc1cc(Oc2ccc(C(F)(F)F)cc2)ccc1NC(=O)c1nccc(OC)c1O [Compound 426]
The pest or weed control at 100 ppm of the first is lower: < 25% for the first, 25 to 74% for the second.

For `COc1ccnc(C(=O)NC2COC(=O)CC3(CCCCC3)CC(=O)OC2)c1O` [Compound 380], the pest or weed control at 100 ppm was < 25%.

Tested on: Stagonospora nodorum (Leptosphaeria nodorum—LEPTNO)
Test: In vitro fungal growth inhibition, Stagonospora nodorum (LEPTNO)
Assay type: cell-based
Details: Leptosphaeria; 25 ppm in growth medium; read-out: LEPTNO in vitro Growth Inhibition

First: COc1ccnc(C(=O)NC2COC(=O)CC3(CCCCC3)CC(=O)OC2)c1O [Compound 380]
Second: COCc1cc(Oc2ccc(C(F)(F)F)cc2)ccc1NC(=O)c1nccc(OC)c1O [Compound 426]
The inhibition at 25 ppm of the first is lower: < 80% for the first, > 80% for the second.

Same assay, conditions: Leptosphaeria; 25 ppm in the growth medium; read-out: LEPTNO in vitro Growth Inhibition

In the case of `COc1ccnc(C(=O)Nc2cccc(Oc3ccc(C(F)(F)F)cc3)n2)c1O` [Compound 469], the inhibition at 25 ppm is reported as > 80%.

Tested on: Leptosphaeria nodorum—LEPTNO
Test: Glume Blotch of Wheat, in vivo whole plant, 24 Hour Protectant
Details: Leptosphaeria; 100 ppm spray, wheat, 24 hour protectant; control of fungal infection vs untreated plants; read-out: LEPTNO in vivo 1 Day Protectant

First: COc1ccnc(C(=O)NC2COC(=O)CC3(CCCCC3)CC(=O)OC2)c1O [Compound 380]
Second: COCc1cc(Oc2ccc(C(F)(F)F)cc2)ccc1NC(=O)c1nccc(OC)c1O [Compound 426]
The pest or weed control at 100 ppm of the first is higher: 25 to 74% for the first, < 25% for the second.

Same assay, conditions: Leptosphaeria; wheat plants sprayed at 100 ppm, inoculated after 24 hours; control of fungal infection vs untreated plants; read-out: LEPTNO in vivo 1 Day Protectant

`COc1ccnc(C(=O)Nc2cccc(Oc3ccc(C(F)(F)F)cc3)n2)c1O` [Compound 469] showed a pest or weed control at 100 ppm of 25 to 74%.

Tested on: Ustilago maydis (USTIMA)
Test: microbe, parasite or virus in culture
Assay type: cell-based
Details: Mycosarcoma maydis, read-out: USTIMA in vitro Growth Inhibition

Compared with `COc1ccnc(C(=O)Nc2cccc(Oc3ccc(C(F)(F)F)cc3)n2)c1O` [Compound 469], `COCc1cc(Oc2ccc(C(F)(F)F)cc2)ccc1NC(=O)c1nccc(OC)c1O` [Compound 426] is higher in inhibition at 25 ppm: < 80% for the first, > 80% for the second.

For `COc1ccnc(C(=O)NC2COC(=O)CC3(CCCCC3)CC(=O)OC2)c1O` [Compound 380], the inhibition at 25 ppm was < 80%.

Tested on: Erysiphe graminis—ERYSGT
Test: Powdery Mildew of Wheat, in vivo whole plant, 24 Hour Protectant
Details: Erysiphe; 100 ppm spray, wheat, 24 hour protectant; control of fungal infection vs untreated plants; read-out: ERYSGT in vivo 1 Day Protectant

`COc1ccnc(C(=O)NC2COC(=O)CC3(CCCCC3)CC(=O)OC2)c1O` [Compound 380] and `COCc1cc(Oc2ccc(C(F)(F)F)cc2)ccc1NC(=O)c1nccc(OC)c1O` [Compound 426] fall in the same range of pest or weed control at 100 ppm: 25 to 74% for the first, 25 to 74% for the second.

Same assay, conditions: Erysiphe; wheat plants sprayed at 100 ppm, inoculated after 24 hours; control of fungal infection vs untreated plants; read-out: ERYSGT in vivo 1 Day Protectant

With `COc1ccnc(C(=O)Nc2cccc(Oc3ccc(C(F)(F)F)cc3)n2)c1O` [Compound 469] the pest or weed control at 100 ppm was < 25%.

Tested on: Rhizoctonia solani (RHIZSO)
Test: microbe, parasite or virus in culture
Assay type: cell-based
Details: Rhizoctonia solani, read-out: RHIZSO in vitro Growth Inhibition

First: COc1ccnc(C(=O)Nc2cccc(Oc3ccc(C(F)(F)F)cc3)n2)c1O [Compound 469]
Second: COCc1cc(Oc2ccc(C(F)(F)F)cc2)ccc1NC(=O)c1nccc(OC)c1O [Compound 426]
The inhibition at 25 ppm of the first is lower: < 80% for the first, > 80% for the second.

For `COc1ccnc(C(=O)NC2COC(=O)CC3(CCCCC3)CC(=O)OC2)c1O` [Compound 380], the inhibition at 25 ppm was < 80%.

Tested on: not given
Test: not given
Details: not given

First: COc1ccnc(C(=O)Nc2cccc(Oc3ccc(C(F)(F)F)cc3)n2)c1O [Compound 469]
Second: COCc1cc(Oc2ccc(C(F)(F)F)cc2)ccc1NC(=O)c1nccc(OC)c1O [Compound 426]
The melting point of the first is higher: 149 to 151 °C for the first, 125 to 127 °C for the second.

Work on `COc1ccnc(C(=O)NC2COC(=O)CC3(CCCCC3)CC(=O)OC2)c1O` [Compound 380] yielded a melting point of 107 to 108 °C.

Tested on: Magnaporthe grisea (Pyricularia oryzae—PYRIOR)
Test: microbe, parasite or virus in culture
Assay type: cell-based
Details: Pyricularia oryzae, read-out: PYRIOR in vitro Growth Inhibition

`COc1ccnc(C(=O)Nc2cccc(Oc3ccc(C(F)(F)F)cc3)n2)c1O` [Compound 469] and `COCc1cc(Oc2ccc(C(F)(F)F)cc2)ccc1NC(=O)c1nccc(OC)c1O` [Compound 426] cannot be ordered by inhibition at 25 ppm: > 80% for the first, > 80% for the second.

In the case of `COc1ccnc(C(=O)NC2COC(=O)CC3(CCCCC3)CC(=O)OC2)c1O` [Compound 380], the inhibition at 25 ppm is reported as < 80%.
